Drawing on patent US20070021434A1, “NON-NUCLEOSIDE ANTI-HEPACIVIRUS AGENTS AND USES THEREOF” (Migenix Inc., priority 2005, published 2007), this text covers IC50 for 34 molecules.

The structures appear in SMILES notation. Some results are limits rather than exact numbers.

This test deals with HCV RdRp (NS5B) (UniProt P26663). It is filed as biochemical, hepatitis C virus.
Chain of HCV RdRp (NS5B) (P26663 whole entry, looked up): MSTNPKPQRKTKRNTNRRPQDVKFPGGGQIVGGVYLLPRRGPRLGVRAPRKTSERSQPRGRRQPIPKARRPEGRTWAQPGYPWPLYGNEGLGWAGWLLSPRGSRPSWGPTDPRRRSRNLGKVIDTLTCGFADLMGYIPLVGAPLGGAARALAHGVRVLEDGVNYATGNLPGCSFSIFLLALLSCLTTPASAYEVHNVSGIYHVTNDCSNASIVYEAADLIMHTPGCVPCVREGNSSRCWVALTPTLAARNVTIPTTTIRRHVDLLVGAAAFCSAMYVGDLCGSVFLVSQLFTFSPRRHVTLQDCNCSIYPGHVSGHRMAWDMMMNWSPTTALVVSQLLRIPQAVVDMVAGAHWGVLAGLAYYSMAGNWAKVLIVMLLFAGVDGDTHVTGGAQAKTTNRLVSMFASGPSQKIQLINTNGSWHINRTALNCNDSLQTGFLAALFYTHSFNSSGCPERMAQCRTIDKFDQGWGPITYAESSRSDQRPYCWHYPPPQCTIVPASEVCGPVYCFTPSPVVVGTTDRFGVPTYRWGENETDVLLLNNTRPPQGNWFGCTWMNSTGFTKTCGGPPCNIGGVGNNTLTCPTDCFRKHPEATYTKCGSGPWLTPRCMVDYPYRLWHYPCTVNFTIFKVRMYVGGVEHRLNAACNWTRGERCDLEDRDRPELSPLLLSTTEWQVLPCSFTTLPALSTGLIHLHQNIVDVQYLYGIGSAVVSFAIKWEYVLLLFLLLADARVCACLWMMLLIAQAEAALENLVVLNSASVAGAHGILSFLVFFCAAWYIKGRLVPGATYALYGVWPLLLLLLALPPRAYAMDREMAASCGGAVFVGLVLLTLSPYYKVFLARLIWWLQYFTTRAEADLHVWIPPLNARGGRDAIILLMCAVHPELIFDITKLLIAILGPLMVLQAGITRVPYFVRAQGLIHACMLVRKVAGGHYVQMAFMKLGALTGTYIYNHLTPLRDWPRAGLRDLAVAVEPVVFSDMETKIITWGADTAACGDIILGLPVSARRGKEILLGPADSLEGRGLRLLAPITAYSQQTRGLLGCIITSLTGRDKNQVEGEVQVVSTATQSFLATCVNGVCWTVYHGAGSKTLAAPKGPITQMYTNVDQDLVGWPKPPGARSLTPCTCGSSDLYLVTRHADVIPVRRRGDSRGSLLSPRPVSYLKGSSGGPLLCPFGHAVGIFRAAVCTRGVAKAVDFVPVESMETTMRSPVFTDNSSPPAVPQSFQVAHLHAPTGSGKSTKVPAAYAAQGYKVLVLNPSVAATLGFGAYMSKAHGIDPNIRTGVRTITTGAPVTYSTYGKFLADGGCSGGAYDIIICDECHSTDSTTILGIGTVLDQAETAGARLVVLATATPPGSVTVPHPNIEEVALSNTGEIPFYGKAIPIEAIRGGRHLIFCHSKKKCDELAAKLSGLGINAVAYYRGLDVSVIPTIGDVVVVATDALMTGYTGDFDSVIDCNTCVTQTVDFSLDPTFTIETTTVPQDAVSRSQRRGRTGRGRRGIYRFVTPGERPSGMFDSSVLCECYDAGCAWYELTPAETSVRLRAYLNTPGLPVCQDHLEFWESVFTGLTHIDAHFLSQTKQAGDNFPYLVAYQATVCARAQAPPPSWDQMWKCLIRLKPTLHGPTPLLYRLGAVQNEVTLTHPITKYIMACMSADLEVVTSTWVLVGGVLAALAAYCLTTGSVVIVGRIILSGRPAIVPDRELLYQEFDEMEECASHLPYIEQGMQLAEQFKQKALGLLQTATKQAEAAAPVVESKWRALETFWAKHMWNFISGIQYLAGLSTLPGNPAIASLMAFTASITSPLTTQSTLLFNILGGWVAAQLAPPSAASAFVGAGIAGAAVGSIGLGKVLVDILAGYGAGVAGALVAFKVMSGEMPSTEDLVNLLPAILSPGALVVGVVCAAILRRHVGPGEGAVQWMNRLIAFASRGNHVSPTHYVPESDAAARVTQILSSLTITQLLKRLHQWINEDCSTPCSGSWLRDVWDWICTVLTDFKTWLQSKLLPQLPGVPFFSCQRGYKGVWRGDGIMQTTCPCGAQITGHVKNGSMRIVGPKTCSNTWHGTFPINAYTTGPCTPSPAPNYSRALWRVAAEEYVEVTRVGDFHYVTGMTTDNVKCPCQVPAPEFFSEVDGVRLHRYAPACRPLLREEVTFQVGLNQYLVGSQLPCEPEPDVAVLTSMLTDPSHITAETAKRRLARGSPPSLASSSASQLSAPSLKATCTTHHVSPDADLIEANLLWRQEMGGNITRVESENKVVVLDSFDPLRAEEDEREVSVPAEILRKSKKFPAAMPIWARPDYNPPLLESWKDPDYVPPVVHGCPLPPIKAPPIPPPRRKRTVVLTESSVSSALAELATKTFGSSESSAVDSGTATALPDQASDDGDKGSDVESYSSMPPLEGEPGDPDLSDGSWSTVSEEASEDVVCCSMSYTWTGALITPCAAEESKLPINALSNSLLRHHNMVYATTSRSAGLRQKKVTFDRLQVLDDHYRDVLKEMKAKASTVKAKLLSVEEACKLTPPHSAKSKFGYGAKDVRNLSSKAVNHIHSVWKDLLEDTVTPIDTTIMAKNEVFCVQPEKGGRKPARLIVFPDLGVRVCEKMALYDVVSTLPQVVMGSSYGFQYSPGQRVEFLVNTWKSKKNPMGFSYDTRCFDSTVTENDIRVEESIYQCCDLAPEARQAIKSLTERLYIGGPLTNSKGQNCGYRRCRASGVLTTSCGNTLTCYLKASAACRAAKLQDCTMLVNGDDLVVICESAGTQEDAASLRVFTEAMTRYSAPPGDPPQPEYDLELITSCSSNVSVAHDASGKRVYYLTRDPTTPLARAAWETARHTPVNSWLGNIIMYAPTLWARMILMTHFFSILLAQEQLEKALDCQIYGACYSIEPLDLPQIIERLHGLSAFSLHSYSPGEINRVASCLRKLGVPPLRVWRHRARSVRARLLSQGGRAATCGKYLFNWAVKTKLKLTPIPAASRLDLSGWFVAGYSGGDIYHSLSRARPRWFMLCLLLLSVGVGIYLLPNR
As to `NCCC[C@@H](NC(=O)Nc1ccc(OCc2ccccc2)cc1)C(=O)Nc1ccc(C2CCCCC2)cc1` [Compound 202, (R)-5-AMINO-2-[3-(4-BENZYLOXY-PHENYL)-UREIDO]-PENTANOIC ACID (4-CYCLOHEXYL-PHENYL)-AMIDE], the IC50 was under 10 µM. Under `NCCC[C@@H](NC(=O)Nc1ccc2c(c1)Cc1ccccc1-2)C(=O)Nc1ccc(C2CCCCC2)cc1` [Compound 203, (R)-5-AMINO-2-[3-(9H-FLUOREN-2-YL)-UREIDO]-PENTANOIC ACID (4-CYCLOHEXYL-PHENYL)-AMIDE] stands under 10 µM; under `Cc1ccc(NC(=O)[C@H](CCCCN)NC(=O)Nc2cccc(OCc3ccccc3)c2)cc1` [Compound 204, (S)-6-AMINO-2-[3-(3-BENZYLOXY-PHENYL)-UREIDO]-HEXANOIC ACID P-TOLYLAMIDE], over 50 µM. The result for `Cc1ccc(NC(=O)[C@@H](CCCCN)NC(=O)Nc2cccc(OCc3ccccc3)c2)cc1` [Compound 205, (R)-6-AMINO-2-[3-(3-BENZYLOXY-PHENYL)-UREIDO]-HEXANOIC ACID P-TOLYLAMIDE] reads over 50 µM; that for `NCCCC[C@H](NC(=O)OCC1c2ccccc2-c2ccccc21)C(=O)Nc1cccc2[nH]ccc12` [Compound 208, (S)-[5-AMINO-1-(1H-INDOL-4-YLCARBAMOYL)-PENTYL]-CARBAMIC ACID 9H-FLUOREN-9-YLMETHYL ESTER], under 10 µM; that for `CNc1ccc(NC(=O)[C@H](CCCCN)NC(=O)OCC2c3ccccc3-c3ccccc32)cc1` [Compound 209, (S)-[5-AMINO-1-(4-METHYLAMINO-PHENYLCARBAMOYL)-PENTYL]-CARBAMIC ACID 9H-FLUOREN-9-YLMETHYL ESTER], 10 to 50 µM. The result for `NCCCC[C@H](NC(=O)OCC1c2ccccc2-c2ccccc21)C(=O)Nc1ccc(OCc2ccccc2)c(Cl)c1` [Compound 210, (S)-[5-AMINO-1-(4-BENZYLOXY-3-CHLORO-PHENYLCARBAMOYL)-PENTYL]-CARBAMIC ACID 9H-FLUOREN-9-YLMETHYL ESTER] reads under 10 µM; that for `NCCCC[C@H](NC(=O)OCC1c2ccccc2-c2ccccc21)C(=O)Nc1cccc(OCc2ccccc2)c1` [Compound 211, (S)-[5-AMINO-1-(3-BENZYLOXY-PHENYLCARBAMOYL)-PENTYL]-CARBAMIC ACID 9H-FLUOREN-9-YLMETHYL ESTER], 10 to 50 µM; that for `Cc1ccc(NC(=O)C(CCCCN)NC(=O)Nc2cccc(Cc3ccccc3)c2)cc1` [Compound 212, (S)-6-AMINO-2-[3-(3-BENZYL-PHENYL)-UREIDO]-HEXANOIC ACID P-TOLYLAMIDE], 10 to 50 µM.

On to `Cc1ccc(NC(=O)[C@H](CCCCN)NC(=O)Nc2ccc3c(c2)OCCO3)cc1` [Compound 213, (S)-6-AMINO-2-[3-(2,3-DIHYDRO-BENZO[1,4]DIOXIN-6-YL)-UREIDO]-HEXANOIC ACID P-TOLYLAMIDE], for which the IC50 is over 50 µM. Under `Cc1cc2cc(NC(=O)[C@H](Cc3ccc(CN)cc3)NC(=O)OCC3c4ccccc4-c4ccccc43)ccc2[nH]1` [Compound 215, (S)-[2-(4-AMINOMETHYL-PHENYL)-1-(2-METHYL-1H-INDOL-5-YLCARBAMOYL)-ETHYL]-CARBAMIC ACID 9H-FLUOREN-9-YLMETHYL ESTER] stands 10 to 50 µM. The result for `Cc1ccc(NC(=O)[C@H](CCCCN)NC(=O)OCC2c3ccccc3-c3ccccc32)cc1C` [Compound 216, (S)-[5-AMINO-1-(3,4-DIMETHYL-PHENYLCARBAMOYL)-PENTYL]-CARBAMIC ACID 9H-FLUOREN-9-YLMETHYL ESTER] reads 10 to 50 µM; that for `O=CNCCCC[C@H](NC(=O)OCC1c2ccccc2-c2ccccc21)C(=O)Nc1ccc(Cl)c(Cl)c1` [Compound 217, (S)-[1-(3,4-DICHLORO-PHENYLCARBAMOYL)-5-FORMYLAMINO-PENTYL]-CARBAMIC ACID 9H-FLUOREN-9-YLMETHYL ESTER], 10 to 50 µM. Under `NCCCC[C@H](NC(=O)OCC1c2ccccc2-c2ccccc21)C(=O)Nc1cccc(C(F)(F)F)c1` [Compound 218, (S)-[5-AMINO-1-(3-TRIFLUOROMETHYL-PHENYLCARBAMOYL)-PENTYL]-CARBAMIC ACID 9H-FLUOREN-9-YLMETHYL ESTER] stands over 50 µM; under `CC(=O)c1cccc(NC(=O)[C@H](CCCCN)NC(=O)OCC2c3ccccc3-c3ccccc32)c1` [Compound 219, (S)-[1-(3-ACETYL-PHENYLCARBAMOYL)-5-AMINO-PENTYL]-CARBAMIC ACID 9H-FLUOREN-9-YLMETHYL ESTER], over 50 µM. For the molecule `Cc1ccc(NC(=O)C(CCCNC(=O)C2CCCN2)NC(=O)OCC2c3ccccc3-c3ccccc32)cc1` [Compound 220, (S)-{4-[R-(PYRROLIDINE-2-CARBONYL)-AMINO]-1-P-TOLYLCARBAMOYL-BUTYL}-CARBAMIC ACID 9H-FLUOREN-9-YLMETHYL ESTER], the half-inhibitory concentration (IC50) was over 50 µM.

`Cc1ccc(NC(=O)C(CCNC(=O)CN)NC(=O)OCC2c3ccccc3-c3ccccc32)cc1` [Compound 221, (S)-[3-(2-AMINO-ACETYLAMINO)-1-P-TOLYLCARBAMOYL-PROPYL]-CARBAMIC ACID 9H-FLUOREN-9-YLMETHYL ESTER] came in with an IC50 of over 50 µM. As to `Cc1ccc(NC(=O)C(CNC(=O)CNC(=O)CN)NC(=O)OCC2c3ccccc3-c3ccccc32)cc1` [Compound 222, (S)-{2-[2-(2-AMINO-ACETYLAMINO)-ACETYLAMINO]-1-P-TOLYLCARBAMOYL-ETHYL}-CARBAMIC ACID 9H-FLUOREN-9-YLMETHYL ESTER], the IC50 was in the range of 10 to 50 µM.

On to `CNCC(=O)NCCCC(NC(=O)OCC1c2ccccc2-c2ccccc21)C(=O)Nc1ccc(C)cc1` [Compound 223, (S)-[4-(2-METHYLAMINO-ACETYLAMINO)-1-P-TOLYLCARBAMOYL-BUTYL]-CARBAMIC ACID 9H-FLUOREN-9-YLMETHYL ESTER], for which the IC50 fell in the range of 10 to 50 µM. Take `Cc1ccc(NC(=O)[C@H](CCCCN)NC(=O)Nc2ccc(NCc3ccccc3)cc2)cc1` [Compound 224, (S)-6-AMINO-2-[3-(4-BENZYLAMINO-PHENYL)-UREIDO]-HEXANOIC ACID P-TOLYLAMIDE]: the IC50 fell in the range of 10 to 50 µM. Under `Cc1ccc(NC(=O)[C@H](CCCCN)NC(=O)Nc2ccc(NCc3ccc(F)cc3)cc2)cc1` [Compound 225, (S)-6-AMINO-2-{3-[4-(4-FLUORO-BENZYLAMINO)-PHENYL]-UREIDO}-HEXANOIC ACID P-TOLYLAMIDE] stands over 50 µM. Under `NCCCC[C@H](NC(=O)Nc1ccc2c(c1)Cc1ccccc1-2)C(=O)Nc1ccc(C2CCCCC2)cc1` [Compound 226, (S)-6-AMINO-2-[3-(9H-FLUOREN-2-YL)-UREIDO]-HEXANOIC ACID (4-CYCLOHEXYL-PHENYL)-AMIDE] stands over 50 µM; under `Cc1cc2cc(NC(=O)[C@H](Cc3ccc(CN)cc3)NC(=O)Nc3ccc(OCc4ccccc4)cc3)ccc2[nH]1` [Compound 227, (S)-3-(4-AMINOMETHYL-PHENYL)-2-[3-(4-BENZYLOXY-PHENYL)-UREIDO]-N-(2-METHYL-1H-INDOL-5-YL)-PROPIONAMIDE], under 10 µM; under `Cc1ccc(NC(=O)[C@H](CCCCN)NC(=O)OCC2c3ccccc3-c3ccccc32)cn1` [Compound 229, (S)-[5-AMINO-1-(6-METHYL-PYRIDIN-3-YLCARBAMOYL)-PENTYL]-CARBAMIC ACID 9H-FLUOREN-9-YLMETHYL ESTER], over 50 µM.

`CC(=O)Nc1ccc(NC(=O)[C@H](CCCCN)NC(=O)OCC2c3ccccc3-c3ccccc32)cc1` [Compound 230, (S)-[1-(4-ACETYLAMINO-PHENYLCARBAMOYL)-5-AMINO-PENTYL]-CARBAMIC ACID 9H-FLUOREN-9-YLMETHYL ESTER] gave an IC50 of over 50 µM.

For the molecule `CC(=O)Nc1cccc(NC(=O)[C@H](CCCCN)NC(=O)OCC2c3ccccc3-c3ccccc32)c1` [Compound 231, (S)-[1-(3-ACETYLAMINO-PHENYLCARBAMOYL)-5-AMINO-PENTYL]-CARBAMIC ACID 9H-FLUOREN-9-YLMETHYL ESTER], the IC50 was over 50 µM. `NCCCC[C@H](NC(=O)OCC1c2ccccc2-c2ccccc21)C(=O)Nc1ccncc1` [Compound 232, (S)-[5-AMINO-1-(PYRIDIN-4-YLCARBAMOYL)-PENTYL]-CARBAMIC ACID 9H-FLUOREN-9-YLMETHYL ESTER] yielded an IC50 of over 50 µM.

Molecule `Cc1cc2cc(NC(=O)[C@H](CCCCNC(=O)CN)NC(=O)OCC3c4ccccc4-c4ccccc43)ccc2[nH]1` [Compound 233, (S)-[5-(2-AMINO-ACETYLAMINO)-1-(2-METHYL-1H-INDOL-5-YLCARBAMOYL)-PENTYL]-CARBAMIC ACID 9H-FLUOREN-9-YLMETHYL ESTER] yielded an IC50 of under 10 µM. Under `Cc1cc2cc(NC(=O)C(Cc3ccc(CN)cc3)NC(=O)Nc3ccc(-c4ccccc4)cc3)ccc2[nH]1` [Compound 234, (S)-3-(4-AMINOMETHYL-PHENYL)-2-(3-BIPHENYL-4-YL-UREIDO)—NR-(2-METHYL-1H-INDOL-5-YL)-PROPIONAMIDE] stands 10 to 50 µM; under `Cc1cc2cc(NC(=O)[C@H](Cc3ccc(CN)cc3)NC(=O)Nc3ccc4c(c3)Cc3ccccc3-4)ccc2[nH]1` [Compound 235, (S)-3-(4-AMINOMETHYL-PHENYL)-2-[3-(9H-FLUOREN-2-YL)-UREIDO]-N-(2-METHYL-1H-INDOL-5-YL)-PROPIONAMIDE], under 10 µM. Under `Cc1ccc(NC(=O)C(CCCCN)NC(=O)Nc2ccc(C=Cc3ccccc3)cc2)cc1` [Compound 236, (S)-6-AMINO-2-[3-(4-STYRYL-PHENYL)-UREIDO]-HEXANOIC ACID P-TOLYLAMIDE] stands under 10 µM; under `Cc1cc2cc(NC(=O)[C@H](CCCNC(=O)CN)NC(=O)OCC3c4ccccc4-c4ccccc43)ccc2[nH]1` [Compound 238, (S)-[4-(2-AMINO-ACETYLAMINO)-1-(2-METHYL-1H-INDOL-5-YLCARBAMOYL)-BUTYL]-CARBAMIC ACID 9H-FLUOREN-9-YLMETHYL ESTER], under 10 µM.

On to `Cc1cc2cc(NC(=O)[C@H](CCCCNC(=O)CN)NC(=O)Nc3ccc(OCc4ccccc4)cc3)ccc2[nH]1` [Compound 239, (S)-6-(2-AMINO-ACETYLAMINO)-2-[3-(4-BENZYLOXY-PHENYL)-UREIDO]-HEXANOIC ACID (2-METHYL-1H-INDOL-5-YL)-AMIDE], for which the IC50 was under 10 µM. Consider `Cc1cc2cc(NC(=O)[C@H](CCNC(=O)CN)NC(=O)Nc3ccc(OCc4ccccc4)cc3)ccc2[nH]1` [Compound 241, (S)-4-(2-AMINO-ACETYLAMINO)-2-[3-(4-BENZYLOXY-PHENYL)-UREIDO]-N-(2-METHYL-1H-INDOL-5-YL)-BUTYRAMIDE], for which the IC50 is under 10 µM.

As usually defined, the IC50 is the concentration needed to halve the response being measured. A higher IC50 goes with weaker potency.
